This is an account of results in article PMC6742641, “Design, synthesis and biological evaluation of a series of CNS penetrant HDAC inhibitors structurally derived from amyloid-β probes” (Scientific Reports, 2019).

Series [1] has as its system SH-SY5Y cells. Briefly: Cell proliferation (anti-proliferation) assay, MTS. The series is classed as cell-based, human. The following applies: for GI50 / IC50: Homo sapiens; for GI50: SH-SY5Y neuroblastoma cell line, 72 h, mean ± SD (n = 4); for IC50: read-out: anti-proliferative activity IC50 against SH-SY5Y cell line. The protocol:
SH-SY5Y cells were grown in DMEM with L-glutamin supplemented with streptomycin ([…]), penicillin (100 units/mL), and 10% fetal bovine serum (FBS). Cells were grown to confluence in a humidified atmosphere (37 °C, 5% CO2).
SH-SY5Y cells (1.5 × 10^3 cells/well) were seeded in a clear 96-well plate, the medium volume was brought to 100 µL, and the cells were allowed to attach overnight. The next day, various concentrations of compounds or DMSO were added to the wells. Cells were then incubated at 37 °C for 24, 48 and 72 h. Cell viability was determined using the Promega Cell Titer 96 Aqueous One Solution cell proliferation assay. Absorbance at 490 nm was read on Tecan Infinite F200 Pro plate reader, and values were expressed as percent of absorbance from cells incubated in DMSO alone.

The nature of series [2]: PAMPA-BBB assay. The series is classed as in vitro ADME. As to conditions: for Papp at 4 h, 25 μM: PAMPA, read-out: Pe. The procedure: BBB-PAMPA was conducted by manufacturer’s instruction (pION Inc, MA, USA). […] Transmembrane side to donor part was coated with BBB lipid solution and add 200 μL acceptor buffer in upper part of PAMPA sandwich plate.
(In general: In PAMPA a lipid-coated filter parts donor from acceptor wells.)

Series [3] can be described thus: In vivo brain pharmacokinetic study. The following applies: ICR male mice, IV, 2 mg/kg. The procedure: The study was approved by the Institutional Animal Care and Use of Committee of Daegu-Gyeongbuk Medical Innovation Foundation (DGMIF) and performed in accordance with protocols approved by the Institutional Animal Care and Use of Committee. […] Brain and plasma samples were collected at 0.5 and 1 h time points. Brain samples were homogenized at a 1:4 ratio of sample weight (g) to PBS volume (mL). Aliquots (20 μL) of brain homogenate were mixed with 180 μL of acetonitrile, vortexed and centrifuged at 15,000 rpm for 5 minutes at 4 °C. The resulting supernatants were used for LC-MS/MS analysis. Mice plasma samples were collected at 0.5 and 1 h time points. 180 μL of acetonitrile was added to 20 μL of plasma samples, vortexed and centrifuged at 15,000 rpm for 5 minutes at 4 °C.

Series [4] relates to Ac-α-tubulin. Nature of the series: Western blot of acetylation status in SH-SY5Y cells. The series is classed as cell-based, human. As to conditions: 24 h, 1 μM. The procedure: Cells were seeded in 100 mm culture dishes (1 × 10^6 cells/dish), and allowed to attach overnight. Inhibitors were added at the concentrations as indicated and the cells were incubated for an additional 24 hours. For comparison, cells were also incubated with DMSO (0.5%) for 24 hours. Cells were harvested in ice-cold lysis buffer (23 mM Tris-HCl pH 7.6, 130 mM NaCl, 1% NP-40, 1% sodium deoxycholate, 0.1% SDS), and 30 µg of lysate per lane was separated by SDS-PAGE and followed by transferring to a PVDF membrane (Bio-Rad). The membrane was blocked with 5% skim milk in TBST, and then incubated with the corresponding antibody (Ac-α-tubulin, α-tubulin, Ac-Histone H3, Histone H3 or β-actin). After binding of an appropriate secondary antibody coupled to horseradish peroxidase, proteins were visualized by ECL chemiluminescence according to the instructions of the manufacturer (GE healthcare, USA).
(In general: Immunoblotting shows a protein as a band on a membrane.)

[5] abbreviates: 25 μM, pH 7.4, 4 h, 25 °C, mean ± SD, three independent experiments.

Like-named read-outs stand apart in the source and are kept apart here.

Take `O=C(NO)c1ccc(-c2nc3ccccc3[nH]2)cc1` [Compound 5]: halving of growth in series [1] (GI50) required 60 ± 1.5 µM. For the same molecule, in series [1] (SH-SY5Y, Table 1 values IC50), the concentration for half-maximal inhibition (IC50) (in general, the point on the concentration scale where inhibition reaches its midpoint) is 60 µM.
As to `Cn1c(-c2cccc(C(=O)NO)c2)nc2ccccc21` [Compound 14a], the GI50 (commonly the concentration giving 50% growth inhibition) in series [1] is greater than 100 µM.
For the molecule `CCCCn1c(-c2ccc(C(=O)NO)cc2)nc2ccccc21` [Compound 6d], the GI50 in series [1] was 26.8 ± 1.35 µM. Also, the IC50 in series [1] (SH-SY5Y, Table 1 values IC50) was 26.8 µM. The “fold increase in potency from non-substituted analogue 5” value in series [1] (SH-SY5Y) is listed as roughly 2 fold.
Molecule `O=C(NO)c1ccc(-c2nc3ccccc3o2)cc1` [Compound 9a] displayed a GI50 in series [1] of 25.7 ± 0.05 µM. In addition, the IC50 in series [1] (SH-SY5Y, Table 1 values IC50) turned out to be 25.7 µM. Besides, the “fold less potent anti-proliferative activity than compound 9b” value in series [1] (SH-SY5Y) is recorded as 12 fold.
Turning to `O=C(CCCCCCC(=O)Nc1ccccc1)NO` [SAHA, suberoylanilide hydroxamic acid, reference compound], in series [1] (SH-SY5Y), the IC50 was 2.9 µM. The molecule also displayed a GI50 in series [1] of 2.9 ± 0.28 µM. Also, the “Pe (10^−6 cm/s)” value in series [2] (setting [5]) is 2.77 10^−6 cm/s. Further, the Papp at 4 h, 25 μM in series [2] (setting [5]) was 2.77 ± 0.05 ×10⁻⁶ cm/s. The “Brain concentration (ng/mL) 0.5 h” value in series [3] (0.5 h, n = 4) worked out at 14.5 ± 2.8 ng/mL. Besides, the “Brain concentration (ng/mL) 1 h” value in series [3] (1 h, n = 4) is given as “BQL”. In addition, the Kp at 0.5 h in series [3] (mouse, brain/plasma, 0.5 h, read-out: Brain/plasma ratio 0.5 h) was 0.4. Also, the concentration at 0.5 h in series [3] (mouse, brain, 0.5 h, n = 4, read-out: Brain concentration (ng/mL) 0.5 h) turned out to be 14.5 ng/mL; in series [3] (mouse, plasma, 0.5 h, n = 4, read-out: Plasma concentration (ng/mL) 0.5 h), 39.2 ± 11.5 ng/mL. Moreover, in series [3] (mouse, plasma, 1 h, n = 4, read-out: Plasma concentration (ng/mL) 1 h), the concentration at 1 h came to 4.5 ± 2.7 ng/mL. Besides, the “acetylation of α-tubulin at 1 μM, SAHA versus 9b” value in series [4] is given as “induced more acetylation of α-tubulin than compound 9b”.
Regarding `CCn1c(-c2ccc(C(=O)NO)cc2)nc2ccccc21` [Compound 6b], in series [1], the GI50 was determined as 38.1 ± 0.2 µM.
Still for that read-out and setting: the same measure for `CCCn1c(-c2ccc(C(=O)NO)cc2)nc2ccccc21` [Compound 6c]: 54.7 ± 0.95 µM; for `CCCn1c(-c2cccc(C(=O)NO)c2)nc2ccccc21` [Compound 14c]: 34.6 ± 0.6 µM.
On to `O=C(NO)c1cccc(-c2nc3ccccc3s2)c1` [Compound 17b], for which the GI50 in series [1] amounted to 21.4 ± 1.65 µM.
Same read-out and setting: the same measure for `Cn1c(-c2ccc(C(=O)NO)cc2)nc2ccccc21` [Compound 6a]: 58.3 ± 10.8 µM.
The same measure, in the same setting: the same measure for `CCn1c(-c2cccc(C(=O)NO)c2)nc2ccccc21` [Compound 14b]: 28.2 ± 0.75 µM; for `O=C(NO)c1cccc(-c2nc3ccccc3o2)c1` [Compound 17a]: 17.5 ± 0.35 µM; for `O=C(NO)c1cccc(-c2nc3ccccc3[nH]2)c1` [Compound 13]: greater than 100 µM.
With `CC(=O)[C@H]1CC[C@H]2[C@@H]3CCC4=CC(=O)CC[C@]4(C)[C@H]3CC[C@]12C` [Progesterone], the “CNS +/− classification” value in series [2] (PAMPA-BBB) is “CNS + (CNS + indicates (Pe > 10))”. Further, in series [2] (setting [5]), the Papp at 4 h, 25 μM amounted to 35.52 ± 0.33 ×10⁻⁶ cm/s.
In series [1], `CCCCn1c(-c2cccc(C(=O)NO)c2)nc2ccccc21` [Compound 14d] displayed a GI50 of 20.7 ± 1 µM.
